From patent US7271153B2, “Nitrogenous heterocyclic derivatives, medicinal compositions containing the same, medicinal uses thereof, and intermediates therefor” (Kissei Pharmaceutical Co., Ltd., priority 2001, dated 2007) come the findings set out here.

The target in the assay is T1, human SGLT2 (Homo sapiens, UniProt P31639, I433V).
T1 construct: expressed in transfected cells; host or cells: COS-7 cells (RIKEN CELL BANK RCB0539), transient electroporation with plasmid KL29
T1 sequence (P31639 1-672 I433V): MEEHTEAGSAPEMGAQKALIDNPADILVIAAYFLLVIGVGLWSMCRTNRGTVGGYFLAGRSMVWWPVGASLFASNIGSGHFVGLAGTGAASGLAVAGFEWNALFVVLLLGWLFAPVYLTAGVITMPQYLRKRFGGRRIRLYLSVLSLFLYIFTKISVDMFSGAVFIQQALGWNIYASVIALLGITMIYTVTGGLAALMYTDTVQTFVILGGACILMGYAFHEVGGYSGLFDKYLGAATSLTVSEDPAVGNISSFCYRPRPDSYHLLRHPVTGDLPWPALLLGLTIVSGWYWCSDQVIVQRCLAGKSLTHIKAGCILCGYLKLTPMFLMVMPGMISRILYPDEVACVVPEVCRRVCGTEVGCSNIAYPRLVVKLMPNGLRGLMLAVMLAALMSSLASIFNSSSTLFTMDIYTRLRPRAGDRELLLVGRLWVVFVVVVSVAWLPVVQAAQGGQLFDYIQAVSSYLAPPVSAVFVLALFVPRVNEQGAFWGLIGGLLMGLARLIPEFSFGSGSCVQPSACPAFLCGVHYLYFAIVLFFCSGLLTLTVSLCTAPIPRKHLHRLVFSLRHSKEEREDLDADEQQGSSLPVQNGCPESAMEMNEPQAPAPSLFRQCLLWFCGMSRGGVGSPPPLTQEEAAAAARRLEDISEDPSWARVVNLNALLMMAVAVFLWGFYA
The experiment in a line: Assay for inhibitory effect on human SGLT2 activity (uptake of methyl-α-D-glucopyranoside in COS-7 cells expressing transiently human SGLT2). The class given is cell-based. The note with it: methyl-α-D-(U-14C)glucopyranoside uptake, 37° C., 2 hours, read-out: IC50 (concentration at which 50% of methyl-α-D-glucopyranoside uptake was inhibited). The protocol:
Assay for Inhibitory Effect on Human SGLT2 Activity
1) Construction of the Plasmid Vector Expressing Human SGLT2
Preparation of the cDNA library for PCR amplification was performed by reverse transcription of a total RNA deprived from human kidney (Ori gene) with oligo dT as the primer, using SUPERSCRIPT Preamplification System (Gibco-BRL: LIFE TECHNOLOGIES). The DNA fragment coding for human SGLT2 was amplified by the PCR reaction using Pfu DNA Polymerase (made by Stratagene), in which the human kidney cDNA library described above was used as the template and the following oligo nucleotides 0702F and 0712R, presented as Sequence Numbers 1 and 2 respectively, were used as the primers. The amplified DNA fragment was ligated into pCR-Blunt (Invitrogen), a vector for cloning, according to standard method of the kit. The Escherichia coli HB101 Competent Cell (made by TOYOBO Co., Ltd.) was transformed according to usual method and then selection of the transformants was performed on the LB agar medium containing 50 μg/mL of kanamycin. After plasmid DNA was extracted and purified from the one of the transformants, amplifying of the DNA fragment coding for human SGLT2 was performed by the PCR reaction using Pfu DNA Polymerase (made by Stratagene), in which the following oligo nucleotides 0714F and 0715R, presented as Sequence Numbers 3 and 4 respectively, were used as the primers. The amplified DNA fragment was digested with restriction enzymes, Xho I and Hind III, and then purified with Wizard Purification System (Promega). This purified DNA fragment was inserted at the corresponding restriction sites of pcDNA3.1 (−) Myc/His—A (Invitrogen), avector for expressing of fusion protein. The Escherichia coli HB101 Competent Cell (made by TOYOBO Co., Ltd.) was transformed according to usual method and then selection of the transformant was performed on the LB agar medium containing 100 μg/mL of ampicillin. After plasmid DNA was extracted and purified from this transformant, the base sequence of the DNA fragment inserted at the multi-cloning sites of the vector pcDNA3.1 (−) Myc/His—A was analyzed. […] Sequentially, a clone in which valine is substituted for isoleucine-433 was obtained. This plasmid-vector expressing human SGLT2 in which the peptide presented as Sequence Number 5 is fused to the carboxyl terminal alanine residue was designated KL29.
2) Preparation of the Cells Expressing Transiently Human SGLT2
KL29, the plasmid coding human SGLT2, was transfected into COS-7 cells (RIKEN CELL BANK RCB0539) by electroporation. Electroporation was performed with GENE PULSER II (Bio-Rad Laboratories) under the condition: 0.290 kV, 975 μF, 2×10^6 cells of COS-7 cell and 20 μg of KL29 in 500 μL of OPTI-MEM I medium (Gibco-BRL: LIFE TECHNOLOGIES) in the 0.4 cm type cuvette. […]

On to `COc1ccc(Cc2c(C)cc(C)nc2O[C@@H]2O[C@H](CO)[C@@H](O)[C@H](O)[C@H]2O)cc1` [Example 19, 2-(β-D-Glucopyranosyloxy)-3-(4-methoxybenzyl)-4,6-dimethyl-pyridine], for which the IC50 was determined as 45 nM.
Then `COc1ccc(Cc2c(C)cc(OC)nc2O[C@@H]2O[C@H](CO)[C@@H](O)[C@H](O)[C@H]2O)cc1` [Example 21, 2-(β-D-Glucopyranosyloxy)-6-methoxy-3-(4-methoxybenzyl)-4-methylpyridine], with 55 nM.
Then `CCc1ccc(Cc2c(C)cc(C)nc2O[C@@H]2O[C@H](CO)[C@@H](O)[C@H](O)[C@H]2O)cc1` [Example 18, 3-(4-Ethylbenzyl)-2-(β-D-glucopyranosyloxy)-4,6-dimethyl-pyridine], with 41 nM.
Consider `Cc1cc(C)c(Cc2ccc(CCO)cc2)c(O[C@@H]2O[C@H](CO)[C@@H](O)[C@H](O)[C@H]2O)n1` [Example 20, 2-(β-D-Glucopyranosyloxy)-3-[4-(2-hydroxyethyl)benzyl]-4,6-dimethylpyridine], for which the IC50 came out at 45 nM.
